From publication PMC10574094, “Discovery of a SHP2 Degrader with In Vivo Anti-Tumor Activity” (Molecules, 2023)
Residues, ends and D or L forms follow the SMILES beside them. *: point of attachment. Cbz = O=C(OCc1ccccc1)*

Legend:
[1] = target: T1, SHP2 (Homo sapiens, UniProt Q06124); assay: SHP2 degradation by Western blotting in HEK293 cells; format: cell-based; parameters: endogenous in cells; host or cells: HEK293; conditions: for effect on P9-induced SHP2 degradation: HEK293, 16 h, 250 nM P9 in combination with 1 µM 3, 10 µM MG132, 1 µM MLN4924, 40 µM VHL-2 or 40 µM Lenalidomide; for SHP2 degradation (in words) / Degradation at 1 μM / Degradation at 10 μM: HEK293 cells; for SHP2 degradation (in words): 1 and 10 µM; for Degradation at 1 μM / Degradation at 10 μM: 16 h treatment
T1 sequence (Q06124 1-593): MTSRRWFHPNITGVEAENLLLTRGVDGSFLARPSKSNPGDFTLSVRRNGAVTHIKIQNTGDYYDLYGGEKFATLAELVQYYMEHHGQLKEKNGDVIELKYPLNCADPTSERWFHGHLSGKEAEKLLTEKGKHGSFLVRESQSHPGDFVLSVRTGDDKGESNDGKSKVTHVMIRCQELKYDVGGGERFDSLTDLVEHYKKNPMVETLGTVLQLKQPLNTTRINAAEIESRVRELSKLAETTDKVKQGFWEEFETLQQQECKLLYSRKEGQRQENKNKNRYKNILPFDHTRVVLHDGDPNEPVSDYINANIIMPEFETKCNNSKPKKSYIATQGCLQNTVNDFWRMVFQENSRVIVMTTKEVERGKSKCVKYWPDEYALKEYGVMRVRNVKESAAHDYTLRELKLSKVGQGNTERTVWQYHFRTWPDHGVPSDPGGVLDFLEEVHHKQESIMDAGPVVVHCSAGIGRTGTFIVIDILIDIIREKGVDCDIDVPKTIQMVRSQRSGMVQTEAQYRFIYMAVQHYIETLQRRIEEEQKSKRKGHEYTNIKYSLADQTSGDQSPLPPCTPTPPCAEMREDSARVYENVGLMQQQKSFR
Description: HEK293, SKBR3, U2OS, MCF7 and A549 cells were grown in DMEM supplemented with 10% FBS, penicillin (50 units/mL), and streptomycin (50 μg/mL) in a 37 °C incubator containing 5% CO2. […] For western-blot analysis, protein samples were separated by SDS-PAGE, transferred to nitrocellulose membranes, and incubated overnight at 4 °C with corresponding primary antibodies diluted in 5% BSA in phosphate-buffered saline Tween (PBST). SuperSignal™ West Pico PLUS (PI34580; Thermo Scientific) was used to visualize the antibodies in the bioanalytical imaging system (Azure Biosystems c500). […] Anti-PTP1B (ab244207) antibody was purchased from Abcam. For colony formation assay, a total of approximately 200–500 cells were seeded to each well in a 12-well plate.
Supplemental Figures, Schemes, and Tables:
Figure S1. Western blots of degradation assay for PROTAC screening. (A) Degradation assay of
compo un ds i n Table 1 at 1 μM fo r 16 hours in H EK29 3 cells. (B) Degradation assay of compounds in Table
1 at 10 μM for 16 hours in HEK293 cells. (C) Degradation assay of compounds in Table 2 at 1 μM for 16

[2] = target: T2, full-length SHP2 (1-528) (Homo sapiens, UniProt Q06124); assay: SHP2 allosteric inhibition assay (DiFMUP substrate); format: biochemical; conditions: full length SHP2, enzymatic assay
T2 construct: The SHP2 protein (Aa 1–528) was cloned into a pET-21a(+) vector; His; made in house; host or cells: E. coli BL21(DE3)
T2 sequence (Q06124 1-528): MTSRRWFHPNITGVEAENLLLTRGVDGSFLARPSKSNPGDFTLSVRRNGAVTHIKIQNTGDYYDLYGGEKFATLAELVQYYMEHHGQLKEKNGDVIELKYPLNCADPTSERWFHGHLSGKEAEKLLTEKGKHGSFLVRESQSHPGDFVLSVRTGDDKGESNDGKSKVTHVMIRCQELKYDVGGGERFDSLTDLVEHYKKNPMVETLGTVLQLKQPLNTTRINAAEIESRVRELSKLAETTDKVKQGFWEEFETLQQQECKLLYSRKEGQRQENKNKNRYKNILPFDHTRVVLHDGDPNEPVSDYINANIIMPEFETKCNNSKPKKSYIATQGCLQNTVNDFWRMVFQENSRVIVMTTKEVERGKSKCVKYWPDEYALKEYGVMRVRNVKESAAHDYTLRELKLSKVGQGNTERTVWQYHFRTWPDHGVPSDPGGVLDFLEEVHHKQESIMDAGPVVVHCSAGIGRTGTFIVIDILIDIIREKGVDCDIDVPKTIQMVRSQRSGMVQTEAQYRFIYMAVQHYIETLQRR
Description: The SHP2 protein (Aa 1–528) was cloned into a pET-21a(+) vector. Bacterial BL21(DE3) (Novagen) was used as an expression host, and the induction of protein expression was carried out in LB media with 1 mM IPTG at 18 °C overnight. Cell pellets were stored at −80 °C for subsequent protein purification. Protein purification was conducted at 4 °C. Frozen cell pellets were lysed by sonication in 40 mL cold lysis buffer (50 mM Tris-HCl, pH 8.0, 150 mM NaCl, 5 mM imidazole, and 1 mM PMSF) per liter cell pellet. Cell lysates were clarified by centrifuging for 15 min at 6000 rpm. The supernatant was incubated with HisPur Ni-NTA resin (Thermo Scientific, Waltham, MA, USA) for 2 h, and then packed onto a column and washed with 50 resin volume of buffer A (50 mM Tris-HCl, pH 8.0, 500 mM NaCl, 5 mM imidazole). The HIS-tagged proteins were eluted with Buffer B (50 mM Tris-HCl, pH = 8.0, 500 mM NaCl, 300 mM imidazole,). Pooled HIS-protein-containing fractions were concentrated, loaded onto a HiLoad 26/600 Superdex 75 column (GE Healthcare Biosciences, Piscataway, NJ, USA), and eluted with storage buffer (50 mM Tris-HCl, pH 8.0, 150 mM NaCl, 1 mM DTT, 10% glycerol). Proteins used for inhibition assays were purified using Ni-NTA resin (Qiagen, Hilden, Germany) followed by size exclusion column chromatography (ÄKTA pure, Cytiva, Marlborough, MA, USA) and the purity was determined to be >95% by SDS-PAGE and Coomassie staining. The protein was aliquoted and stored at −80 °C.
The catalytic activity of SHP2 (1-528) was assayed with 6,8-Difluoro-4-Methylumbelliferyl Phosphate (DiFMUP, Invitrogen, cat# D6567) as a substrate in 3,3-Dimethylglutaric acid (DMG) buffer (50 mM DMG, pH 7.0, 1 mM EDTA, 18 mM NaCl, 0.01% Triton X-100) at 25 °C. To determine the IC50 values, the assays were performed in 96-well plates (Corning Costar 3915). Series diluted compounds were incubated with 0.5 nM of SHP2 and 0.5 μM of peptide IRS1_pY1172(dPEG8)pY1222 (sequence H2N-LN(pY)IDLDLV(dPEG8)LST(pY)ASINFQK-amide). After 30 min incubation at room temperature, the substrate DiFMUP was added to the reaction (200 μM final concentration, total reaction volume is […]) and incubated at 25 °C for 10 min. The reaction was then quenched by adding 40 μL of 160 μM bpV(Phen) (Sigma–Aldrich, cat# SML0889) solution. The fluorescence signal was monitored with a CLARIOstar Plus Microplate Spectrophotometer (BMG Labtech) using excitation and emission wavelengths of 340 and 450 nm, respectively. The inhibitordose-response curves were analyzed using normalized IC50 regression curve fitting with control-based normalization. Data were fitted using Prism GraphPad 9.2.0.

Structure (SMILES)	IC50 [2] [nM]	Degradation at 1 μM [1] [%]	Degradation at 10 μM [1] [%]	effect on P9-induced SHP2 degradation [1]	SHP2 degradation (in words) [1]
CC(C)C[C@@H](C=O)NC(=O)[C@H](CC(C)C)NC(=O)[C@H](CC(C)C)NC(=O)OCc1ccccc1 [MG-132, reference compound] (Cbz-Leu-Leu-Leu-aldehyde)				markedly reduced the extent of SHP2 degradation	
NS(=O)(=O)OC[C@@H]1C[C@@H](n2ccc3c(N[C@H]4CCc5ccccc54)ncnc32)C[C@@H]1O [MLN-4924, reference compound]				markedly reduced the extent of SHP2 degradation	
NCC1(CCCCCC(=O)O)CCN(c2cnc(Sc3cccc(Cl)c3Cl)c(N)n2)CC1 [compound 4]	90				
Nc1cccc2c1CN(C1CCC(=O)NC1=O)C2=O (stereo not shown) [lenalidomide, reference compound]				did not affect the SHP2 degradation induced by P9	

Now from value to compound, other results behind:

IC50 [2] [nM]	Degradation at 1 μM [1] [%]	Degradation at 10 μM [1] [%]	Structure (SMILES)	effect on P9-induced SHP2 degradation [1]	SHP2 degradation (in words) [1]
158 ± 26.5	<10	<10	Cc1ncsc1-c1ccc([C@H](C)NC(=O)[C@@H]2C[C@@H](O)CN2C(=O)[C@@H](NC(=O)CCOCCOCCOCCNC(=O)CCCCCC2(CN)CCN(c3cnc(Sc4cccc(Cl)c4Cl)c(N)n3)CC2)C(C)(C)C)cc1 [P3, (2S,4R)-1-((S)-22-(1-(6-amino-5-((2,3-dichlorophenyl)thio)pyrazin-2-yl)-4-(aminomethyl)piperidin-4-yl)-2-(tert-butyl)-4,17-dioxo-7,10,13-trioxa-3,16-diazadocosanoyl)-4-hydroxy-N-((S)-1-(4-(4-methylthiazol-5-yl)phenyl)ethyl)pyrrolidine-2-carboxamide]		did not induce significant degradation of SHP2
156 ± 15.8	<10	<10	Cc1ncsc1-c1ccc([C@H](C)NC(=O)[C@@H]2C[C@@H](O)CN2C(=O)[C@@H](NC(=O)CCOCCOCCOCCOCCNC(=O)CCCCCC2(CN)CCN(c3cnc(Sc4cccc(Cl)c4Cl)c(N)n3)CC2)C(C)(C)C)cc1 [P4, (2S,4R)-1-((S)-25-(1-(6-amino-5-((2,3-dichlorophenyl)thio)pyrazin-2-yl)-4-(aminomethyl)piperidin-4-yl)-2-(tert-butyl)-4,20-dioxo-7,10,13,16-tetraoxa-3,19-diazapentacosanoyl)-4-hydroxy-N-((S)-1-(4-(4-methylthiazol-5-yl)phenyl)ethyl)pyrrolidine-2-carboxamide]		did not induce significant degradation of SHP2
166 ± 11.9	<10	<10	Cc1ncsc1-c1ccc([C@H](C)NC(=O)[C@@H]2C[C@@H](O)CN2C(=O)[C@@H](NC(=O)CCOCCOCCOCCOCCOCCNC(=O)CCCCCC2(CN)CCN(c3cnc(Sc4cccc(Cl)c4Cl)c(N)n3)CC2)C(C)(C)C)cc1 [P5, (2S,4R)-1-((S)-28-(1-(6-amino-5-((2,3-dichlorophenyl)thio)pyrazin-2-yl)-4-(aminomethyl)piperidin-4-yl)-2-(tert-butyl)-4,23-dioxo-7,10,13,16,19-pentaoxa-3,22-diazaoctacosanoyl)-4-hydroxy-N-((S)-1-(4-(4-methylthiazol-5-yl)phenyl)ethyl)pyrrolidine-2-carboxamide]		did not induce significant degradation of SHP2
119 ± 25.4			Cc1ncsc1-c1ccc([C@H](C)NC(=O)[C@@H]2C[C@@H](O)CN2C(=O)[C@@H](NC(=O)CCCCCCCN2CCN(C(=O)CCCCCC3(CN)CCN(c4cnc(Sc5cccc(Cl)c5Cl)c(N)n4)CC3)CC2)C(C)(C)C)cc1 [P7, (2S,4R)-1-((S)-2-(8-(4-(6-(1-(6-amino-5-((2,3-dichlorophenyl)thio)pyrazin-2-yl)-4-(aminomethyl)piperidin-4-yl)hexanoyl)piperazin-1-yl)octanamido)-3,3-dimethylbutanoyl)-4-hydroxy-N-((S)-1-(4-(4-methylthiazol-5-yl)phenyl)ethyl)pyrrolidine-2-carboxamide]		
104 ± 9.3			Cc1ncsc1-c1ccc([C@H](C)NC(=O)[C@@H]2C[C@@H](O)CN2C(=O)[C@@H](NC(=O)CCCCCCCCN2CCN(C(=O)CCCCCC3(CN)CCN(c4cnc(Sc5cccc(Cl)c5Cl)c(N)n4)CC3)CC2)C(C)(C)C)cc1 [P8, (2S,4R)-1-((S)-2-(9-(4-(6-(1-(6-amino-5-((2,3-dichlorophenyl)thio)pyrazin-2-yl)-4-(aminomethyl)piperidin-4-yl)hexanoyl)piperazin-1-yl)nonanamido)-3,3-dimethylbutanoyl)-4-hydroxy-N-((S)-1-(4-(4-methylthiazol-5-yl)phenyl)ethyl)pyrrolidine-2-carboxamide]		
111 ± 8.2			Cc1ncsc1-c1ccc([C@H](C)NC(=O)[C@@H]2C[C@@H](O)CN2C(=O)[C@@H](NC(=O)CCCCCCCCCCN2CCN(C(=O)CCCCCC3(CN)CCN(c4cnc(Sc5cccc(Cl)c5Cl)c(N)n4)CC3)CC2)C(C)(C)C)cc1 [P10, (2S,4R)-1-((S)-2-(11-(4-(6-(1-(6-amino-5-((2,3-dichlorophenyl)thio)pyrazin-2-yl)-4-(aminomethyl)piperidin-4-yl)hexanoyl)piperazin-1-yl)undecanamido)-3,3-dimethylbutanoyl)-4-hydroxy-N-((S)-1-(4-(4-methylthiazol-5-yl)phenyl)ethyl)pyrrolidine-2-carboxamide]		
